Where “and” joins values, the source holds several entries; their conditions need not be identical. Identical values can stand only once.
Test system: KPC CAFs
Test: 3D organotypic matrix contraction assay
Type: cell-based, mouse
Parameters: measured area of matrices: unit not given here
Conditions: for measured area of matrices: per replicate, n = 3
Experimental: Fig. 3 PXS-5505 inhibition of CAF remodeling in vitro. a, Quantitative PCR with reverse transcription (qRT–PCR) showing in vitro comparison of KPC CAF relative expression of lysyl oxidase family members compared to KPC CCs from the same model (n = 3 biologically independent samples). Comparisons were determined by 2^–∆∆Ct approach. b, Representative images of 3D organotypic matrix contraction assay at days 2, 6 and 12 in the absence (gray) or presence (pink) of PXS-5505 (30 µM). Scale bars, 5 mm. Comparison of measured area of matrices between control and PXS-5505 treatment groups over time (n = 3 technical samples examined over three biologically independent samples). Data are mean ± s.d. c, Concentration of immature divalent DHLNL and mature trivalent Pyr collagen crosslinks determined by LC–MS from control and PXS-5505-treated organotypic matrices at day 12 (n = 3 technical samples examined over two biologically independent samples). Data are mean ± s.d. […] Data are presented as mean ± s.d. […] Comparison of number of CCs invaded per field of view (FOV) as determined by H&E and PanCK staining (nine images taken from three technical samples from each of three biologically independent contracted matrices), normalized to control. Data are mean ± s.d. Scale bars, 100 μm. […] Source data
High-purity rat tail collagen for 3D organotypic assays was acid extracted following previously published methodology. The 12-day organotypic assays were carried out as described previously. In brief, 2 × 10^5 KPC CAFs were embedded in 2.5 ml 1.5 mg ml^−1 rat tail collagen and allowed to remodel for 12 days in a six-well plate in DMEM supplemented with 10% FBS and 1% penicillin–streptomycin in 21% O2/5% CO2 (Extended Data Fig. 4a). For human pancreatic cancer CAFs, 3.45 × 10^5 cells were embedded into 1.25 ml 1.5 mg ml^−1 rat tail collagen and allowed to remodel for 12 days in a 12-well plate in IMDM supplemented with 4 mM glutamine and 10% FBS in 21% O2/5% CO2.
Extended Data Fig. 4 PXS-5505 inhibits collagen cross-linking by PDAC CAFs in vitro resulting in decreased cancer cell invasion. a. Schematic of organotypic matrix remodeling assay whereby CAFs are embedded into a 3D collagen matrix and growth media supplemented with or without PXS-5505 to inhibit lysyl oxidase family activity b. Chemical structures of lysyl oxidase family catalyzed hydroxyallysine or allysine residues and the subsequent divalent and trivalent bonds that are formed that can be quantified by mass spectrometry. c. Representative images of 3D organotypic matrix contraction by human pancreatic cancer CAFs at days 2, 6 and 12 in the absence (gray) and presence (pink) of PXS-5505 (30 µM). Scale bars = 5 mm. […] Data presented as mean values +/− SD. d. […] Data presented as mean values +/− SD. Relative fold expression of LOXL family members compared to LOX were determined by 2^–∆∆Ct approach. f. Schematic of cancer cell invasion in a 3D organotypic matrix assay whereby cancer cells are seeded to the surface of a remodeled collagen plug and placed at an air–liquid interface and allowed to invade into the remodeled matrix. […] Scale bars = 100 μm. g. […] Representative images of 3D organotypic matrix contraction assay at days 2, 6 and 12 of control (gray) and presence of PXS-5120 (blue) and PXS-5505 (pink). Scale bars = 5 mm. Comparison of measured area of matrices between control, PXS-5120 and PXS-5505 treatment groups (n = 3) over time. i. […] Representative images of invasion of KPC cancer cells into a contracted organotypic matrix as determined by H&E staining. […] Source data

SMILES: Cl.Cl.NC/C=C(\F)CS(=O)(=O)c1cccc2cccnc12.O [PXS-5505, (Z)-3-fluoro-4-(quinolin-8-ylsulfonyl)but-2-en-1-amine dihydrochloride monohydrate]
- matrix contraction (KPC CAFs, PXS-5505 30 µM, days 2, 6 and 12): no macroscopic effect on matrix contraction
- measured area of matrices (time 0 (unit of time not given)): 9.616
- measured area of matrices (time 1 (unit of time not given)): 9.616
- measured area of matrices (time 2 (unit of time not given)): 9.561 and 9.616 (2×)
- measured area of matrices (time 3 (unit of time not given)): 9.0213 and 9.561 and 9.616
- measured area of matrices (time 4 (unit of time not given)): 6.466 and 5.808 and 8.601
- measured area of matrices (time 5 (unit of time not given)): 4.597 and 3.696 and 6.971
- measured area of matrices (time 6 (unit of time not given)): 3.299 and 2.6 and 5.471
- measured area of matrices (time 7 (unit of time not given)): 2.954 and 2.216 and 4.409
- measured area of matrices (time 8 (unit of time not given)): 2.6 and 1.886 and 3.595
- measured area of matrices (time 9 (unit of time not given)): 1.96 and 1.5386 and 2.216
- measured area of matrices (time 10 (unit of time not given)): 1.327 and 1.266 and 1.583
- measured area of matrices (time 11 (unit of time not given)): 1.149 and 1.168 and 1.41
- measured area of matrices (time 12 (unit of time not given)): 1.075 and 1.112 and 1.188
